Among the test systems are 786-0 renal; A498 renal; COLO 205 colon; DU-145 prostate; HCC-2998 colon; HCT-15 colon; HS 578T breast; KM12 colon; LOX IMVI melanoma; OVCAR-5 ovarian; RPMI-8226 leukemia; SF-295 CNS; SK-MEL-28 melanoma; SK-OV-3 ovarian; SN12C renal; SNB-19 CNS; SW-620 colon; UACC-62 melanoma; UO-31 renal; MDA-N.
Common to all, as to test: inhibition of tumour cell growth, NCI panel, 48 h

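Assay format: 96-well plates, 48-hour exposure. The concentration for full growth arrest is given as TGI.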

Take `COc1ccc2nc3ccc(OC)cc3c(S(=O)Cc3ccccc3)c2c1` (configuration not stated): the TGI was 4.78 µM with 786-0 renal; 38.9 µM with A498 renal; 25.9 µM in the assay on COLO 205 colon; 5.85 µM with DU-145 prostate; 38.4 µM with HCC-2998 colon; more than 48.9 µM with HCT-15 colon. The TGI is 33.8 µM in the assay on HS 578T breast; 40.5 µM with KM12 colon; 6.66 µM with LOX IMVI melanoma; 35.3 µM with OVCAR-5 ovarian; 6.6 µM in the assay with RPMI-8226 leukemia; 35.4 µM in the assay on SF-295 CNS. Further, the TGI in the assay on SK-MEL-28 melanoma is 27.2 µM; in the assay with SK-OV-3 ovarian, 33.9 µM; in the assay on SN12C renal, 21.3 µM; with SNB-19 CNS, 41.5 µM; in the assay with SW-620 colon, more than 32.1 µM; in the assay on UACC-62 melanoma it was 28.5 µM. Moreover, the TGI in the assay with UO-31 renal worked out at 22.8 µM.
With `Nc1c(F)c(F)c2c(c1F)N(CCCCCl)c1ccccc1S2`, the TGI in the assay with 786-0 renal, in the assay on A498 renal, with COLO 205 colon, in the assay on DU-145 prostate, with HCC-2998 colon and in the assay on HCT-15 colon was more than 100 µM each time. Also, the TGI with HS 578T breast, with KM12 colon, with LOX IMVI melanoma, with OVCAR-5 ovarian, in the assay with RPMI-8226 leukemia and with SF-295 CNS was more than 100 µM throughout. Also, the TGI with SK-MEL-28 melanoma, in the assay on SK-OV-3 ovarian, in the assay on SN12C renal, with SNB-19 CNS, with SW-620 colon and in the assay on UACC-62 melanoma was more than 100 µM in each case. Further, the TGI with UO-31 renal was more than 100 µM.
`CO[P@@]1(=O)O[C@@H](c2ccccc2)[C@H](O)[C@@]1(O)c1ccccc1`: the TGI in the assay with 786-0 renal, in the assay on A498 renal, with COLO 205 colon, in the assay on DU-145 prostate, in the assay on HCT-15 colon and with HS 578T breast was more than 100 µM each time. In addition, the TGI with KM12 colon, in the assay with LOX IMVI melanoma, in the assay on MDA-N, in the assay with OVCAR-5 ovarian, in the assay with SF-295 CNS and in the assay on SK-MEL-28 melanoma was more than 100 µM throughout. In addition, the TGI with SK-OV-3 ovarian, with SN12C renal, in the assay with SNB-19 CNS, in the assay on SW-620 colon, in the assay on UACC-62 melanoma and in the assay on UO-31 renal was more than 100 µM in each case.
On to `COc1ccc2nc3c4c(nccc4c2c1)-c1ncccc1C3=O`, for which the TGI in the assay on 786-0 renal was 0.208 µM; in the assay on A498 renal, 0.224 µM; in the assay on COLO 205 colon, 1.28 µM; in the assay on DU-145 prostate it was 0.023 µM; in the assay on HCC-2998 colon, 0.805 µM; with HCT-15 colon, 0.069 µM. The TGI in the assay on KM12 colon came to 0.706 µM; in the assay on LOX IMVI melanoma, 0.0977 µM; in the assay on MDA-N, 0.128 µM; in the assay with OVCAR-5 ovarian, 2.1 µM; in the assay on RPMI-8226 leukemia, 0.236 µM; in the assay on SF-295 CNS, 0.278 µM. For the same molecule, the TGI in the assay on SK-MEL-28 melanoma was 0.655 µM; in the assay on SK-OV-3 ovarian it was 0.386 µM; with SN12C renal it was 0.298 µM; in the assay with SNB-19 CNS it was 0.279 µM; in the assay with SW-620 colon, 0.567 µM; in the assay with UACC-62 melanoma it was 0.159 µM. In the assay on UO-31 renal, this molecule yielded a TGI of 0.706 µM.
Take `Cc1cc(C)c(NS(=O)c2ccc(Cl)cc2)c(C)c1` (configuration not stated): the TGI with 786-0 renal, in the assay on A498 renal, with COLO 205 colon, in the assay on DU-145 prostate, in the assay on HCC-2998 colon and with HCT-15 colon was more than 100 µM throughout. The TGI in the assay on KM12 colon, with MDA-N, in the assay on OVCAR-5 ovarian, in the assay with RPMI-8226 leukemia, with SF-295 CNS and in the assay with SK-MEL-28 melanoma was more than 100 µM throughout. Further, the TGI with SN12C renal, in the assay with SNB-19 CNS, in the assay with SW-620 colon and with UO-31 renal was more than 100 µM each time.
For `Cc1cc2c(cc1Cl)SC(NNCCO)=NS2(=O)=O`, the TGI in the assay on 786-0 renal, in the assay with COLO 205 colon, with DU-145 prostate, in the assay with HCC-2998 colon, in the assay on HCT-15 colon and in the assay with HS 578T breast was more than 100 µM throughout. Moreover, the TGI with KM12 colon, with LOX IMVI melanoma, with RPMI-8226 leukemia, with SF-295 CNS, in the assay on SK-MEL-28 melanoma and in the assay with SK-OV-3 ovarian was more than 100 µM throughout. Besides, the TGI in the assay on SNB-19 CNS, with SW-620 colon, in the assay on UACC-62 melanoma and in the assay with UO-31 renal was more than 100 µM each time.
On to `Cn1c2ncccc2n2c(=O)cc(O)cc12`, for which the TGI in the assay with 786-0 renal, with A498 renal, in the assay on COLO 205 colon, in the assay with DU-145 prostate, in the assay with HCC-2998 colon and with HCT-15 colon was more than 100 µM throughout. Moreover, the TGI with KM12 colon, in the assay on LOX IMVI melanoma, in the assay on MDA-N, with OVCAR-5 ovarian, in the assay on RPMI-8226 leukemia and in the assay with SF-295 CNS was more than 100 µM in each case. Moreover, the TGI in the assay with SK-MEL-28 melanoma, in the assay on SK-OV-3 ovarian, with SNB-19 CNS, in the assay on SW-620 colon, with UACC-62 melanoma and with UO-31 renal was more than 100 µM throughout.
Consider `COc1cc2c(cc1NC(=O)c1ccccc1)c1c(n2S(=O)(=O)c2ccccc2)CCN(S(=O)(=O)c2ccccc2)C1`, for which the TGI in the assay with 786-0 renal, in the assay with A498 renal, with COLO 205 colon, in the assay with DU-145 prostate, in the assay on HCC-2998 colon and in the assay on HCT-15 colon was more than 100 µM throughout. Also, the TGI in the assay on HS 578T breast, with KM12 colon, in the assay with LOX IMVI melanoma, with OVCAR-5 ovarian, with RPMI-8226 leukemia and with SK-MEL-28 melanoma was more than 100 µM in each case. The TGI with SK-OV-3 ovarian, with SNB-19 CNS, in the assay with SW-620 colon and with UACC-62 melanoma was more than 100 µM throughout.
`O=C1CC(n2ccnc2)c2c(Cl)sc(Cl)c21` (configuration not stated): the TGI was more than 37.9 µM in the assay with 786-0 renal; 33.8 µM in the assay on COLO 205 colon; 30.6 µM in the assay with DU-145 prostate; 28.1 µM with HCT-15 colon; more than 78.8 µM in the assay on HS 578T breast; 33.9 µM in the assay with KM12 colon. For the same molecule, the TGI is 19.2 µM with LOX IMVI melanoma; 50.4 µM in the assay with MDA-N; 48.1 µM in the assay with OVCAR-5 ovarian; more than 100 µM in the assay on RPMI-8226 leukemia; more than 78.1 µM in the assay on SF-295 CNS; more than 54.7 µM with SK-MEL-28 melanoma. For the same molecule, the TGI was more than 79.5 µM with SK-OV-3 ovarian; 37.3 µM in the assay on SN12C renal; 38.3 µM in the assay on SNB-19 CNS; more than 33.1 µM in the assay on SW-620 colon; 32 µM with UACC-62 melanoma; 27 µM in the assay with UO-31 renal.
In the case of `CCC1(c2ccc(OC)c(OC)c2)CCN(S(=O)(=O)c2ccc(C)cc2)C1` (configuration not stated), the TGI with 786-0 renal, in the assay on COLO 205 colon, with DU-145 prostate, in the assay with HCC-2998 colon, in the assay on HCT-15 colon and in the assay with KM12 colon was more than 100 µM throughout. Besides, the TGI with LOX IMVI melanoma was more than 100 µM; in the assay with MDA-N, more than 100 µM; with OVCAR-5 ovarian it was more than 100 µM; in the assay on SF-295 CNS, more than 100 µM; in the assay with SK-MEL-28 melanoma, more than 10 µM; in the assay on SK-OV-3 ovarian, more than 100 µM. For the same molecule, the TGI in the assay on SN12C renal, in the assay on SNB-19 CNS, with SW-620 colon, with UACC-62 melanoma and with UO-31 renal was more than 100 µM each time.
With `N#CCCC1(CCC#N)S(=O)(=O)OCCOS1(=O)=O`, the TGI was more than 100 µM in the assay on 786-0 renal; more than 100 µM in the assay with COLO 205 colon; more than 100 µM in the assay on DU-145 prostate; more than 100 µM with HCT-15 colon; 78.4 µM in the assay on HS 578T breast; more than 100 µM in the assay on KM12 colon. The TGI in the assay with LOX IMVI melanoma, with MDA-N, in the assay on OVCAR-5 ovarian, in the assay on RPMI-8226 leukemia, with SF-295 CNS and in the assay with SK-MEL-28 melanoma was more than 100 µM each time. Besides, the TGI in the assay on SK-OV-3 ovarian, in the assay on SN12C renal, in the assay with SNB-19 CNS, in the assay with SW-620 colon, with UACC-62 melanoma and in the assay on UO-31 renal was more than 100 µM throughout.
Regarding `Cc1n[nH]c(=O)n1/N=C/c1ccco1`, the TGI with 786-0 renal, in the assay on A498 renal, in the assay on COLO 205 colon, in the assay on DU-145 prostate, with HCC-2998 colon and in the assay with HCT-15 colon was more than 100 µM each time. Besides, the TGI with HS 578T breast, with KM12 colon, in the assay on OVCAR-5 ovarian, in the assay with RPMI-8226 leukemia, in the assay on SF-295 CNS and with SK-MEL-28 melanoma was more than 100 µM in each case. In addition, the TGI with SK-OV-3 ovarian, in the assay on SN12C renal, in the assay with SNB-19 CNS, with SW-620 colon, in the assay with UACC-62 melanoma and in the assay with UO-31 renal was more than 100 µM each time.

For the origin of these results see PubChem BioAssay (NCI).
